These results are taken from patent publication US10160977B2, “Super-enhancers and methods of use thereof” (Whitehead Institute for Biomedical Research, priority 2012, dated 2018).

Counter-ions that a name gives are not always drawn.

Usually IC50 stands for the midpoint of a concentration-inhibition curve.

One assay deals with HL60 cells. Particulars: read-out: IC50, growth of HL60 cells; cited from earlier work.
Assay [1] concerns various tumor cells lines. Particulars: cited from earlier work.
Another assay has as its system xenograft models. Particulars: in vivo; cited from earlier work.
Another assay relates to pause release. The assay is described as follows: Inhibition of pause release. Type of assay: cell-based. From the text: It has undergone clinical trials in a number of different cancer types including various solid tumors and leukemias. […] Without wishing to be bound by theory, this may help counteract the effects of Myc overexpression, and this may be the basis for the therapeutic effect of flavopiridol on some tumors.

Assay [2] deals with T1, c-Myc (Homo sapiens, UniProt P01106). Particulars: cited from earlier work.
T1 sequence (P01106 whole entry): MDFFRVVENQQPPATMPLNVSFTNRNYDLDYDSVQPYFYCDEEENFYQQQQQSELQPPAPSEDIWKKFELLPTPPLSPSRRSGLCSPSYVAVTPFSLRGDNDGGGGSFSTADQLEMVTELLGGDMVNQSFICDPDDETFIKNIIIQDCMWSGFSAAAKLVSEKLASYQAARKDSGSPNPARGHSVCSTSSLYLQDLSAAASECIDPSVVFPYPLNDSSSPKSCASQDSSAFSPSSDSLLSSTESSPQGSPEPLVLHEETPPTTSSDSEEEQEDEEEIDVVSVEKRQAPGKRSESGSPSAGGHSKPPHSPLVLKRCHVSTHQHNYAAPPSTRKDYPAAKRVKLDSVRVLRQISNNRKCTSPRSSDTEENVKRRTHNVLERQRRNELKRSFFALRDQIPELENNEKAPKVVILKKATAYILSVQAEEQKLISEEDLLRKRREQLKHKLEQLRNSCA
A further assay concerns RNA Polymerase II. Kind of assay: ChIP-seq of RNA Polymerase II after JQ1 treatment (transcription elongation). Type of assay: cell-based, human. Particulars: MM.1S cells. From the text:
(FIG. 10B) Genes associated with super-enhancers show a dramatic defect in elongation.

Another assay has as its system P-TEFb. Kind of assay: ChIP-Seq of P-TEFb occupancy in MM.1S cells after JQ1 treatment. It is filed as cell-based, human. From the text: FIGS. 9(A)-9(C) illustrate that loss of P-TEFb accompanies BRD4 inhibition. (FIG. 9A) P-TEFb generally occupies enhancers bound by Mediator and BRD4 in MM1.S cells. […] (FIG. 9C) P-TEFb is disproportionally lost at super-enhancers.
BRD4 recruits the active form of the positive transcription elongation factor P-TEFb, which stimulates pause release and transcription elongation (Bisgrove et al., 2007; Hargreaves et al., 2009; Jang et al., 2005; Jiang et al., 1998; Wu and Chiang, 2007; Wu et al., 2003; Yang et al., 2005). […] Furthermore, P-TEFb was disproportionately lost at super-enhancers when compared to normal enhancers (FIG. 9C). We conclude that BET bromodomain inhibition of BRD4 leads to loss of P-TEFb at enhancers and transcription start sites, and that the inhibition has more profound effects at super-enhancers than at average enhancers.

The subject of another assay is MM.1S cells. The assay is described as follows: JQ1 sensitivity of MM.1S cells by measurement of ATP levels (CellTiterGlo). It is filed as cell-based, human. From the text:
(§1) Schematic depicting the experimental procedure.

Assay [3] relates to c-MYC. Kind of assay: Western blot of c-MYC protein levels after JQ1 or DMSO treatment. Type of assay: cell-based, human. Particulars: MM.1S cells, 6 hours of JQ1 treatment.
Text: as §1

Assay [4] has as its target T1, c-Myc. Particulars: cited from earlier work. This is another data set of the same source.
A further assay has as its target c-Myc/Max (Homo sapiens, UniProt P01106). Particulars: cited from earlier work.
Assay [5] has as its target T1, c-Myc. Particulars: at concentrations of 10-40 μM; cited from earlier work.
Assay [6] deals with chicken embryo fibroblasts. Particulars: cited from earlier work.

Chain of c-Myc/Max (P01106 whole entry): as above

Regarding `CCc1ccc(/C=C2/SC(=S)NC2=O)cc1` [10058-F4], the IC50 with HL60 cells is 49 µM.
As for `CN1CC[C@H](c2c(O)cc(O)c3c(=O)cc(-c4ccccc4Cl)oc23)[C@H](O)C1` [Flavopiridol, (−)-2-(2-Chlorophenyl)-5,7-dihydroxy-8-[(3S,4R)-3-hydroxy-1-methyl-4-piperidinyl]-4H-1-benzopyran-4-one hydrochloride], in [1], the “antitumor activity against various tumor cells lines” value was “antitumor activity”. Also, the “tumor growth in xenograft models” value with xenograft models is recorded as “inhibit tumor growth”. The pause release result in the assay on pause release is “inhibit pause release”.
In the case of `CNC(=O)c1cc2c(cc1C(=O)NC[C@H](NS(=O)(=O)c1c(Cl)sc(Cl)c1Br)C(=O)OC(C)(C)C)CN(C(=O)CCC1CCN(C(=O)OC(C)(C)C)CC1)C2` [IIA6B17], the “inhibition of c-Myc-dependent transcription in a reporter gene assay” value at c-Myc [2] is on record as “inhibit”.
Turning to `Cc1sc2c(c1C)C(c1ccc(Cl)cc1)=N[C@@H](CC(=O)OC(C)(C)C)c1nnc(C)n1-2` [JQ1], the “transcriptional elongation (PolII in the gene body and 3' transcription termination regions)” value with RNA Polymerase II is “global defect in transcriptional elongation”. For the same compound, in the assay with P-TEFb, the “levels of P-TEFb at sites where there was a reduction in BRD4” value was “reduce the levels of P-TEFb”. Further, the “MM1.S cell viability, as measured by ATP levels” value in the assay on MM.1S cells (6 hour treatments, various concentrations of JQ1) is “little effect”. In addition, in the assay on MM.1S cells (later time points), the “antiproliferative effect on MM1.S cells” value is “dramatic antiproliferative effect”. For the same compound, the MYC protein levels result with c-MYC [3] is “significantly depleted”.
For the compound `CN(C)CCCNc1cc(O)c2c(c1O)C(=O)c1ccccc1C2=O` [MYRA-A], at c-Myc [4], the Myc-regulated gene expression result is reported as “inhibit” and the apoptosis entry is “induce apoptosis in a Myc-dependent manner”.
In the case of `COc1ccc(CNC(=O)c2cc3nc(-c4cccs4)cc(C(F)(F)F)n3n2)cc1` [Mycro1], at c-Myc/Max, the “inhibition of c-Myc/Max dimerization” value is listed as “inhibit”. Also, at c-Myc [2], the “specificity for c-Myc-dependent transcription over transcription mediated by AP-1 family proteins” value is recorded as “weak-to-moderate specificity”.
Regarding `O=C(NCc1cccs1)c1cc2nc(-c3cccs3)cc(C(F)(F)F)n2n1` [Mycro2], the “inhibition of c-Myc/Max dimerization” value on c-Myc/Max is on record as “inhibit”. Moreover, at c-Myc [2], the “specificity for c-Myc-dependent transcription over transcription mediated by AP-1 family proteins” value is “weak-to-moderate specificity”.
For `CCOC(=O)c1cnn(-c2ccccc2)c1NC(=O)c1cc2nc(-c3cccs3)cc(C(F)(F)F)n2n1` [Mycro3], the “inhibition of c-Myc/Max dimerization” value at c-Myc/Max is reported as “inhibited”. Moreover, the “selectivity in vitro of inhibition of c-Myc/Max dimerization and DNA binding” value at c-Myc/Max (in vitro) is reported as “very good selectivity”. The “potency and selectivity against c-Myc in cellular assays” value at c-Myc [5] is “good potency and selectivity”.
Regarding `COc1ccc(CN(C(=O)c2ccccn2)C(C(=O)NC2CCCCC2)c2ccc3cc(OCC(=O)OC(C)(C)C)ccc3c2)cc1` (stereo not shown) [NY2267], the “discrimination between transcription mediated by c-Jun and c-Myc” value at c-Myc [2] is listed as “did not discriminate”. Moreover, the “inhibition of c-Myc-dependent oncogenic transformation of chicken embryo fibroblasts” value in assay [6] (at 20 μM) was “strongly inhibited”. In [6], the “selectivity over transformation mediated by v-Src or v-Jun” value is reported as “showed selectivity”.
